Source: PubChem BioAssay (NCI)
“And” between values parts separate entries of the source, which are not always exact repeats. Equal entries are not always repeated.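 Results reflect a 48-hour exposure of cells in 96-well plates to compound at five concentrations. Abbreviation: GI50, concentration required for 50% inhibition of growth. TGI: total growth inhibition.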

Tests used:
Assay in all cases: DTP human tumour cell line panel, 48 h
SNB-19 CNS = system: SNB-19 CNS
HT29 colon = system: HT29 colon
NCI-H226 lung = system: NCI-H226 lung
HS 578T breast = system: HS 578T breast
OVCAR-5 ovarian = system: OVCAR-5 ovarian
NCI-H460 lung = system: NCI-H460 lung
RXF 393 renal = system: RXF 393 renal
M14 melanoma = system: M14 melanoma
SF-295 CNS = system: SF-295 CNS
SF-539 CNS = system: SF-539 CNS

SMILES | GI50 (SNB-19 CNS) | TGI (SNB-19 CNS) | GI50 (HT29 colon) | TGI (HT29 colon) | GI50 (NCI-H226 lung) | TGI (NCI-H226 lung) | GI50 (HS 578T breast) | TGI (HS 578T breast) | GI50 (OVCAR-5 ovarian) | TGI (OVCAR-5 ovarian) | GI50 (NCI-H460 lung) | TGI (NCI-H460 lung) | GI50 (RXF 393 renal) | TGI (RXF 393 renal) | GI50 (M14 melanoma) | TGI (M14 melanoma) | GI50 (SF-295 CNS) | TGI (SF-295 CNS) | GI50 (SF-539 CNS) | TGI (SF-539 CNS)
COc1ccc2c(C3(c4cn(C)c5cc(OC)ccc45)C(=O)Nc4ccc(Cl)cc43)cn(C)c2c1 | 5.81 µM | > 100 µM | 3.22 µM | 24 µM | 5.44 µM | > 100 µM | 3.5 µM | 87.9 µM | 5.37 µM | > 100 µM | 3.29 µM | 11.7 µM | 2.5 µM | 7.87 µM | 4.19 µM | > 100 µM | 5.16 µM | > 100 µM | 9.19 µM | > 100 µM
CCCCCCNC(=O)Oc1ccc(/C(=C(/C)Cc2ccc(OC)cc2)c2ccc(OCCCN(C)C)cc2)cc1 | 17.2 µM | 31.5 µM | 4.4 µM | 15.2 µM | 19.4 µM | 36 µM | 15.5 µM | 35.7 µM | 15.7 µM | 29.8 µM | 14.1 µM | 28.2 µM | 14.8 µM | 29.7 µM | 12.3 µM | 26.1 µM | 14.7 µM | 28.3 µM | 16.2 µM | 30.3 µM
CC(=O)N1N=C(c2ccc(Nc3ccnc4cc(Cl)ccc34)cc2)CC1c1ccc(Cl)cc1 (stereo unspecified) | > 100 µM | > 100 µM | 5.4 µM | > 100 µM | > 100 µM | > 100 µM | > 100 µM | > 100 µM | > 100 µM | > 100 µM | > 100 µM | > 100 µM | 5.07 µM | > 100 µM | 5.24 µM | > 100 µM | 3.58 µM | > 100 µM | > 100 µM | > 100 µM
O=[N+]([O-])c1ccc(C2CC(c3ccccc3Cl)=Nc3ccccc3S2=O)cc1 (stereo unspecified) |  | 12.4 µM |  | 5.73 µM |  | 17.6 µM |  | 7.46 µM |  | 18.6 µM |  | 17.9 µM |  | 4.05 µM |  | 20.7 µM |  | 15.3 µM |  | 15.9 µM
FC(F)(F)c1ccc(-c2cnc(-n3cc(COCCN4CCCCC4)nn3)nc2NC2CCCCCC2)cc1 | 3.61 µM | 7.11 µM | 1.46 µM | 5.08 µM | 3.54 µM | 7.83 µM | 3.91 µM | 10.6 µM | 4.72 µM | 8.79 µM | 4.57 µM | 8.84 µM | 2.51 µM | 5.67 µM | 4.34 µM | 9.01 µM | 4.85 µM | 9.85 µM | 3.89 µM | 7.42 µM
C=C1C(=O)O[C@H]2[C@H]1CC/C(COC(=O)CCSCCC(=O)OC/C1=C/CC[C@@]3(C)O[C@H]3[C@H]3OC(=O)C(=C)[C@@H]3CC1)=C\CC[C@@]1(C)O[C@@H]21 | 2.43 µM | 7.29 µM | 0.496 µM | 1.73 µM | 3 µM | 8.96 µM | 3.18 µM | 24.5 µM | 2.11 µM | 4.21 µM | 1.86 µM | 4.21 µM | 0.767 µM | 2.15 µM | 1.52 µM | 3.35 µM | 1.77 µM | 3.94 µM | 1.2 µM | 2.59 µM
COC1=C(C)C(=O)c2c(c(CCCl)c3n2CCC3O)C1=O (stereo unspecified) | 0.407 µM | 13.6 µM | 0.197 µM | 0.67 µM | 0.764 µM | 5.5 µM | 1.06 µM | 6.65 µM | 0.411 µM | 7.72 µM | 0.178 µM | 2.79 µM | 0.226 µM | 0.597 µM | 0.264 µM | 1.21 µM | 0.237 µM | 0.779 µM | 0.302 µM | 1.16 µM
CCOc1cc(Br)c(C(C)NC(=O)c2cccc(OC)c2)cc1OCC (stereo unspecified) | 11.8 µM | > 100 µM | 5.01 µM | > 100 µM | 21.4 µM | > 100 µM | 15.5 µM | > 96.6 µM | 25.4 µM | > 100 µM | 6.02 µM | > 81.5 µM | 12.6 µM | > 100 µM | 4.38 µM | > 100 µM | 8.3 µM | > 89.5 µM | 7.2 µM | 42.8 µM
CC1=C(/C=C/C(C)=C/C=C/C(C)=C/C=N/NC(=S)NC(=S)N/N=C/C=C(C)/C=C/C=C(C)/C=C/C2=C(C)CCCC2(C)C)C(C)(C)CCC1 | 5.25 µM and 4.15 µM | 11.6 µM and 12 µM | 1.91 µM and 1.07 µM | 8.83 µM and 3.69 µM | 1.06 µM and 1.05 µM | 2.68 µM and 2.47 µM | 3.25 µM and 1.91 µM | 18.7 µM and 9.97 µM | 3.49 µM and 2.84 µM | 9.72 µM and 8.04 µM | 2.35 µM and 1.66 µM | 8.68 µM and 6.36 µM | 0.935 µM and 0.847 µM | 1.87 µM and 1.58 µM | 1.24 µM and 0.918 µM | 3.73 µM and 1.74 µM | 4.09 µM and 2.1 µM | 11.7 µM and 9.42 µM | 1.13 µM and 0.994 µM | 2.85 µM and 2.03 µM
Cn1nc(-c2ccc(Cl)cc2)nc2c(=O)n(C)c(=O)nc1-2 | 3.03 µM | 6.73 µM | 1.11 µM | 11.3 µM | 2.38 µM | 5.83 µM | 1.35 µM | 3.51 µM | 0.949 µM | 1.77 µM | 1.21 µM | 4.94 µM | 0.781 µM | 1.57 µM | 0.75 µM | 1.41 µM | 0.777 µM | 1.81 µM | 1.08 µM | 2.29 µM
COc1cccc(-c2ccc3c(c2)C2CCN(Cc4ccccc4)C3C2)c1 (stereo unspecified) | 12.9 µM | 30.5 µM | 3.24 µM | 12.2 µM | 11.1 µM | 30.4 µM | 8.64 µM | 31 µM | 11.8 µM | 29 µM | 4.13 µM | 15.7 µM | 10.1 µM | 24.6 µM | 5.78 µM | 24.8 µM | 4.08 µM | 20.9 µM | 10.3 µM | 23 µM
CC(C)(C)c1ccc(OC(=O)Nc2ccc(O)c(C(=O)O)c2)cc1 |  | > 100 µM |  | > 100 µM |  | > 100 µM |  | > 100 µM |  | > 100 µM |  | > 100 µM |  | > 100 µM |  | > 100 µM |  | > 100 µM |  | > 100 µM
CCOC(=O)c1c(C)n(Cc2ccccc2)c2c1cc(O)c1[nH]c(Cc3ccccc3)nc12 | 23.6 µM | > 67.9 µM | 6.79 µM | > 34.4 µM | 12.1 µM | > 75.9 µM | 9.53 µM | > 57.8 µM | > 22.7 µM | > 61 µM | 4.23 µM | > 100 µM | 3.4 µM | 14.8 µM | > 50.7 µM | > 100 µM | 11.3 µM | 44.4 µM | 17.1 µM | > 100 µM
Clc1ccc(-c2nnc(-c3cccc4ccccc34)o2)cc1Cl |  | > 100 µM |  | > 100 µM |  | > 100 µM |  | > 100 µM |  | > 100 µM |  | > 100 µM |  | > 100 µM |  | > 100 µM |  | > 100 µM |  | > 100 µM
CCC(c1ccc(OC)cc1)C(CC)c1ccc(O)c(CN2CCN(C)CC2)c1 (stereo unspecified) | 4.88 µM | 18.5 µM | 2.01 µM | 9.06 µM | 12.4 µM | 30.8 µM | 3.08 µM | 9.56 µM | 14.7 µM | 29.3 µM | 3.04 µM | 8.2 µM | 2.83 µM | 12.2 µM | 1.99 µM | 3.8 µM | 2.06 µM | 3.95 µM | 2.66 µM | 7.98 µM
COc1cc(-c2cc(-c3ccc(Nc4ccnc5cc(Cl)ccc45)cc3)nc(N3CCOCC3)n2)cc(OC)c1OC | 2.36 µM | 5.28 µM | 1.97 µM | 4.61 µM | 11.4 µM | 38.2 µM | 2.25 µM | 5.35 µM | 2.19 µM | 4.72 µM | 1.87 µM | 3.89 µM | 1.8 µM | 4.44 µM |  |  | 1.95 µM | 4.12 µM | 1.94 µM | 3.67 µM
O=[N+]([O-])c1ccc(Oc2nc(Nc3ccc(O[C@H]4CO[C@H]5[C@@H]4OC[C@@H]5O)c(Cl)c3)ncc2F)c(Cl)c1 | 2.89 µM | 9.81 µM | 2.43 µM | 11.7 µM | 0.73 µM | 2.5 µM | 0.516 µM | 3.43 µM | 2.33 µM | 16.8 µM | 0.853 µM | 2.98 µM | 0.787 µM | 2.91 µM | 0.565 µM | 1.93 µM | 1.39 µM | 2.92 µM | 1.55 µM | 3.86 µM
COc1cccc(CSCC(=O)O)c1 |  | > 100 µM |  | > 100 µM |  | > 100 µM |  | > 100 µM |  | > 100 µM |  | > 100 µM |  | > 100 µM |  | > 100 µM |  | > 100 µM |  | > 100 µM
O=C1C2=C(c3ccccc31)C(c1ccccc1)N1C(=O)CSC1=N2 (stereo unspecified) |  | > 100 µM |  | 96.9 µM |  | > 100 µM |  | 82.2 µM |  | > 100 µM |  | > 100 µM |  | 60.5 µM |  | > 96.6 µM |  | > 100 µM |  | 97.1 µM
CC(=O)c1c(CN(C)c2ccccc2)n([O-])c2ccccc2[n+]1=O | 17.5 µM | 57.1 µM | 20.4 µM | 49.2 µM | 20.2 µM | 67.5 µM | 50.7 µM | > 100 µM | 31.9 µM | > 100 µM | 33.6 µM | > 100 µM | 21.2 µM | 62.7 µM | 31.4 µM | 80.4 µM |  |  | 28.7 µM | 86.6 µM
